Data reported in patent US8476287B2, “3-hydroxy-5-arylisothiazole derivative” (Mochida Pharmaceutical Co., Ltd., priority 2009, dated 2013).
Structures can show the parent of a compound that is named as a salt.

Molecular target: T1, GPR40 of human origin (Homo sapiens, UniProt O14842)
T1 construct: expressed in transfected cells
Test: Agonist action on GPR40 of human origin (Ca2+ fluorescence in CHO cells)
Format: cell-based
Conditions: CHO cell strain stably expressing GPR40 of human origin; Ca2+ concentration fluctuation, fluorescent calcium indicator
Protocol: A CHO cell strain stably expressing GPR40 of human origin was used to determine the agonist action of a subject compound. This cell strain was seeded in a clear bottom 96 well plate at 4×10^4 cells/100 μL/well. The cell strain was cultured in a CO2 incubator overnight using a Ham's F-12 medium containing a 10% fetal bovine serum, 100 U/mL penicillin, 0.1 mg/mL streptomycin, and 400 μg/mL Geneticin. Calcium 4 Assay Kit (Molecular Devices) was used as a fluorescent calcium indicator. One mL of 77 mg/mL probenecid (Invitrogen) was added to 100 mL of a calcium indicator solution to prepare a solution (loading solution) mixed with a 20 mM HEPES-containing Hanks' balanced salt solution (HBSS) in equal proportions. 200 μL of the loading solution was added to the cells from which the culture solution was removed, and the cells were cultured in a CO2 incubator for 1 hour. The subject compound was diluted with a 20 mM HEPES-containing HBSS and was added to the cells by 50 μL, and the fluctuation of the Ca^2+ concentration was measured by an intracellular ion analyzer. The EC50 value of the subject compound was calculated using the dose-response curve of fluorescence intensity variation.

T1 sequence (O14842 whole entry): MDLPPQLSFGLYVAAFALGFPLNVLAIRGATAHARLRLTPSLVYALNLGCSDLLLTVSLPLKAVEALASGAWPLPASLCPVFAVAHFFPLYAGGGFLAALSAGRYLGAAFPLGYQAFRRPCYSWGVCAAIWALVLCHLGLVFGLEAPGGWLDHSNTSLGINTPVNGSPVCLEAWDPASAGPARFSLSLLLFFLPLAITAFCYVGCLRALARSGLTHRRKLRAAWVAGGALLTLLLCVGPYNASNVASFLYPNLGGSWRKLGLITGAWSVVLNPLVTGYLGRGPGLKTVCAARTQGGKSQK

SMILES | EC50 [nM]
[O-][s+]1nc(O)cc1-c1ccc(COCc2cccc(Br)c2)cc1 (centres unmarked) [Example 141, 5-[4-[(3-bromophenyl)methoxymethyl]phenyl]isothiazol-3-ol 1-oxide] | 300 to 3000
Cc1cc(OC[C@H](O)CO)cc(C)c1-c1cccc(COc2ccc(-c3cc(O)n[s+]3[O-])cc2)c1 (stereo partly drawn) [Example 55, 5-(4-((3-(4-((2R)-2,3-dihydroxypropoxy)-2,6-dimethylphenyl)phenyl)methoxy)phenyl)isothiazol-3-ol 1-oxide(A)] | < 300
Cc1cc(OCCCS(C)(=O)=O)cc(C)c1-c1cccc2c1CC[C@H]2Oc1ccc(-c2cc(O)n[s+]2[O-])cc1 (single isomer, unassigned) [Example 138] | < 300
[O-][s+]1nc(O)cc1-c1ccc(OCc2cccc(Cl)c2)cc1 (single isomer, unassigned) [Example 89, 5-[4-[(3-chlorophenyl)methoxy]phenyl]isothiazol-3-ol 1-oxide(A)] | < 300
Cc1c(Br)cccc1COc1ccc(-c2cc(O)n[s+]2[O-])cc1 (centres unmarked) [Example 91, 5-[4-[(3-bromo-2-methylphenyl)methoxy]phenyl]isothiazol-3-ol 1-oxide(A)] | 300 to 3000
[O-][s+]1nc(O)cc1-c1ccc(O[C@@H]2CCc3c(-c4cccnc4C(F)(F)F)cccc32)cc1 (single isomer, unassigned) [Example 117] | 300 to 3000
[O-][s+]1nc(O)cc1-c1ccc(OC2COc3c2cccc3C(F)(F)F)cc1 (centres unmarked) [Example 80, 1-oxo-5-[4-[[7-(trifluoromethyl)-2,3-dihydro-1-benzofuran-3-yl]oxy]phenyl]-1,2-thiazol-3-ol (A)] | < 300
Cc1cc(OCCCO)nc(C)c1-c1cccc(COc2ccc(-c3cc(O)n[s+]3[O-])cc2)c1 (centres unmarked) [Example 49, 5-(4-((3-(2,4-dimethyl-6-(3-hydroxypropoxy)pyridin-3-yl)phenyl)methoxy)phenyl)isothiazol-3-ol 1-oxide(A)] | < 300
COc1ccc(-c2cccc3c2CC[C@H]3Oc2ccc(-c3cc(O)n[s+]3[O-])cc2)c(C)n1 (stereo partly drawn) [Example 119, 5-[4-[[(1R)-4-(6-methoxy-2-methylpyridin-3-yl)-2,3-dihydro-1H-inden-1-yl]oxy]phenyl]isothiazol-3-ol 1-oxide(A)trifluoroacetate salt] | < 300
Cc1cc(OCC[C@@H](C)O)cc(C)c1-c1cccc(COc2ccc(-c3cc(O)n[s+]3[O-])cc2)c1 (stereo partly drawn) [Example 63, 5-(4-((3-(2,6-dimethyl-4-((3R)-3-hydroxybutoxy)phenyl)phenyl)methoxy)phenyl)isothiazol-3-ol 1-oxide(A)] | < 300
Cc1cc(OCCC(C)(C)O)cc(C)c1-c1cccc(COc2ccc(-c3cc(O)n[s+]3[O-])cc2)c1C (centres unmarked) [Example 13, 5-(4-((3-(2,6-dimethyl-4-(3-hydroxy-3-methylbutoxy)phenyl)-2-methylphenyl)methoxy)phenyl)isothiazol-3-ol 1-oxide] | < 300
[O-][s+]1nc(O)cc1-c1ccc(OCc2cccc(N3CCC(F)(F)CC3)c2)cc1 (single isomer, unassigned) [Example 93, 5-[4-[[3-(4,4-difluoropiperidin-1-yl)phenyl]methoxy]phenyl]isothiazol-3-ol 1-oxide(A)] | 300 to 3000
[O-][s+]1nc(O)cc1-c1ccc(OC2CCc3cc(Cl)ccc32)cc1 (centres unmarked) [Example 6, 5-(4-(5-chloro-2,3-dihydro-1H-inden-1-yloxy)phenyl)isothiazol-3-ol 1-oxide] | 300 to 3000
C[C@@H](Oc1ccc(-c2cc(O)n[s+]2[O-])cc1)c1cccc(Br)c1 (stereo partly drawn) [Example 88, 5-[4-[(1R)-1-(3-bromophenyl)ethoxy]phenyl]isothiazol-3-ol 1-oxide(A)] | 300 to 3000
Cc1cc(OCCCN)cc(C)c1-c1cccc(COc2ccc(-c3cc(O)n[s+]3[O-])cc2)c1 (centres unmarked) [Example 78, 5-[4-[[3-[4-(3-aminopropoxy)-2,6-dimethylphenyl]phenyl]methoxy]phenyl]isothiazol-3-ol 1-oxide(A)] | < 300
Cc1cc(OCCCN2CCCC2=O)cc(C)c1-c1cccc(COc2ccc(-c3cc(O)n[s+]3[O-])cc2)c1 (centres unmarked) [Example 33] | < 300
Cc1cccc(C)c1-c1cccc(COc2ccc(-c3cc(O)n[s+]3[O-])cc2)c1 (centres unmarked) [Example 8, 5-(4-((3-(2,6-dimethylphenyl)phenyl)methoxy)phenyl)isothiazol-3-ol 1-oxide] | < 300
[O-][s+]1nc(O)cc1-c1ccc(O[C@@H]2CCc3c(C4CC4)cccc32)cc1 (single isomer, unassigned) [Example 109] | < 300

SMILES | EC50 [nM]
Cc1cc(OCCC(C)(C)O)cc(C)c1-c1cccc(COc2ccc(-c3cc(O)n[s+]3[O-])cc2)c1C (centres unmarked) [Example 31, 5-(4-((3-(2,6-dimethyl-4-(3-hydroxy-3-methylbutoxy)phenyl)-2-methylphenyl)methoxy)phenyl)isothiazol-3-ol 1-oxide(A)] | < 300
Cc1cc(OCCCN2CCCC2=O)nc(C)c1-c1cccc(COc2ccc(-c3cc(O)n[s+]3[O-])cc2)c1 (centres unmarked) [Example 35, 5-(4-((3-(2,4-dimethyl-6-(3-(2-oxopyrrolidin-1-yl)propoxy)pyridin-3-yl)phenyl)methoxy)phenyl)isothiazol-3-ol 1-oxide(A)] | < 300
Cc1cc(OC2CCS(=O)(=O)CC2)cc(C)c1-c1cccc(COc2ccc(-c3cc(O)n[s+]3[O-])cc2)c1C (centres unmarked) [Example 29, 5-(4-((3-(2,6-dimethyl-4-((1,1-dioxidetetrahydro-2H-thiopyran-4-yl)oxy)phenyl)-2-methylphenyl)methoxy)phenyl)isothiazol-3-ol 1-oxide(A)] | < 300
Cc1nc(OCCC(C)(C)O)ccc1-c1cccc2c1CC[C@H]2Oc1ccc(-c2cc(O)n[s+]2[O-])cc1 (single isomer, unassigned) [Example 135] | < 300
Cc1ncccc1Oc1cccc2c1CCC2Oc1ccc(-c2cc(O)n[s+]2[O-])cc1 (centres unmarked) [Example 125, 5-[4-[[4-(2-methylpyridin-3-yl)oxy-2,3-dihydro-1H-inden-1-yl]oxy]phenyl]isothiazol-3-ol 1-oxide(A)] | < 300
Cc1cc(OCC[C@H](C)O)cc(C)c1-c1cccc(COc2ccc(-c3cc(O)n[s+]3[O-])cc2)c1C (stereo partly drawn) [Example 61, 5-(4-((3-(2,6-dimethyl-4-((3S)-3-hydroxybutoxy)phenyl)-2-methylphenyl)methoxy)phenyl)isothiazol-3-ol 1-oxide(A)] | < 300
[O-][s+]1nc(O)cc1-c1ccc(O[C@@H]2CCc3c(C4=CCOCC4)cccc32)cc1 (stereo partly drawn) [Example 121, 5-[4-[[(1R)-4-(3,6-dihydro-2H-pyran-4-yl)-2,3-dihydro-1H-inden-1-yl]oxy]phenyl]isothiazol-3-ol 1-oxide(A)] | 300 to 3000
Cc1nc(OCCC(C)(C)O)ccc1-c1cccc(COc2ccc(-c3cc(O)n[s+]3[O-])cc2)c1C (centres unmarked) [Example 11, 5-(4-((3-(6-(3-hydroxy-3-methylbutoxy)-2-methylpyridin-3-yl)-2-methylphenyl)methoxy)phenyl)isothiazol-3-ol 1-oxide] | < 300
CCOCCOc1cc(C)c(-c2cccc(COc3ccc(-c4cc(O)n[s+]4[O-])cc3)c2)c(C)c1 (centres unmarked) [Example 17, 5-(4-((3-(2,6-dimethyl-4-(2-ethoxyethoxy)phenyl)phenyl)methoxy)phenyl)isothiazol-3-ol 1-oxide(A)] | < 300
[O-][s+]1nc(O)cc1-c1ccc(O[C@H]2CCc3c(Br)cccc32)cc1 (stereo partly drawn) [Example 67, 5-(4-((1S)-4-bromo-2,3-dihydro-1H-inden-1-yloxy)phenyl)isothiazol-3-ol 1-oxide(A)] | 300 to 3000
[O-][s+]1nc(O)cc1-c1ccc(O[C@@H]2CCc3c(Br)cccc32)cc1 (stereo partly drawn) [Example 66, 5-(4-((1R)-4-bromo-2,3-dihydro-1H-inden-1-yloxy)phenyl)isothiazol-3-ol 1-oxide(A)] | < 300
[O-][s+]1nc(O)cc1-c1ccc(OC2CCc3c(Cl)cccc32)cc1 (centres unmarked) [Example 68, 5-(4-(4-chloro-2,3-dihydro-1H-inden-1-yloxy)phenyl)isothiazol-3-ol 1-oxide(A)] | < 300
Cc1cc(OCCC(C)(C)O)nc(C)c1-c1cccc(COc2ccc(-c3cc(O)n[s+]3[O-])cc2)c1C (centres unmarked) [Example 12, 5-(4-((3-(2,4-dimethyl-6-(3-hydroxy-3-methylbutoxy)pyridin-3-yl)-2-methylphenyl)methoxy)phenyl)isothiazol-3-ol 1-oxide] | < 300
Cc1nc(OCCO)ccc1-c1cccc(COc2ccc(-c3cc(O)n[s+]3[O-])cc2)c1C (centres unmarked) [Example 52, 5-(4-((3-(2-methyl-6-(2-hydroxyethoxy)pyridin-3-yl)-2-methylphenyl)methoxy)phenyl)isothiazol-3-ol 1-oxide(A)] | 300 to 3000
Cc1cc(OCCO)cc(C)c1-c1cccc(COc2ccc(-c3cc(O)n[s+]3[O-])cc2)c1C (centres unmarked) [Example 51, 5-(4-((3-(2,6-dimethyl-4-(2-hydroxyethoxy)phenyl)-2-methylphenyl)methoxy)phenyl)isothiazol-3-ol 1-oxide(A)] | < 300
[O-][s+]1nc(O)cc1-c1ccc(OC2CCc3c2cccc3C(F)(F)F)cc1 (centres unmarked) [Example 69, 5-(4-(4-trifluoromethyl-2,3-dihydro-1H-inden-1-yloxy)phenyl)isothiazol-3-ol 1-oxide(A)] | < 300
[O-][s+]1nc(O)cc1-c1ccc(O[C@@H]2CCc3c(-c4cccnc4)cccc32)cc1 (single isomer, unassigned) [Example 111] | < 300
